The results in this text go back to patent US20220127247A1, “N-(PYRIDIN-2-YL)PYRIDINE-SULFONAMIDE DERIVATIVES AND THEIR USE IN THE TREATMENT OF DISEASE” (NOVARTIS AG, priority 2019, published 2022).

Structures are written as SMILES.

For test [1], the target named is T1, delF508-CFTR (Homo sapiens, UniProt P13569, DEL508-508).
T1 construct: expressed in transfected cells
Description: delF508-CFTR functional activity in primary human bronchial epithelial cells (HBECs), Multi-Transepithelial Clamp Circuit (MTECC-24) assay. It counts as cell-based. The following applies: for EC50: primary human delF508-CFTR bronchial epithelial cells, 24 h with compound, equivalent short circuit current (Ieq), forskolin plus potentiator, mean of at least two replicates, read-out: MTECC24-CFHBEC EC50; for MTECC24-CFHBEC Amax %: test compound added 24 h before assay, with potentiator (S)-3-amino-6-methoxy-N-(3,3,3-trifluoro-2-hydroxy-2-methylpropyl)-5-(trifluoromethyl)picolinamide, relative to 2 μM 3-(6-(1-(2,2-difluorobenzo[d][1,3]dioxol-5-yl)cyclopropane-1-carboxamido)-3-methylpyridin-2-yl)benzoic acid + 0.5 μM N-(2,4-di-tert-butyl-5-hydroxyphenyl)-4-oxo-1,4-dihydroquinoline-3-carboxamide. The source says: Measurement of delF508-CFTR Functional Activity in Primary Human Bronchial Epithelial Cells (HBECs) Using Multi-Transepithelial Clamp Circuit (MTECC-24) Assay
This assay measures the functional activity of the CFTR channel (Chloride ion transport) in patient derived primary human bronchial epithelial cells with forskolin activation and in the presence of the CFTR corrector/potentiator combination.
Primary human delF508-CFTR bronchial epithelial cells were and cultured according to previously established methods (Neuberger, T. et, al., Methods in Molecular Biology, 2011, 741, pp 39-54). Briefly, before thawing the HBEC cells, T25 flasks were coated with 2 mL of 3T3 conditioned media (MTI-GlobalStem, Cat #GSM9100) for at least 12 hours in 37° C. CO2 incubator. 1.7×10^5 cells were seeded into one T25 flask with 5 mL of HBE growth media (BEBM with supplements (Lonza, Cat #CC-3170) with 10 nM of retinoic acid (Sigma, Cat #R-2625) and 1% of PSA (Hyclone, Cat #SV30079.01). Media was changed every day till the cells were 100% confluent. Cells were seeded into T75 flasks (pre-coated with 5 mL of 3T3 conditioned media for more than 12 hrs) at 4.95×10^5 cells/T75 flask in 15 mL of HBE growth media. Flasks were fed everyday with fresh HBE growth media until the cells were confluent. 24-well transwell plates (Corning, Cat #3378) were coated with 3T3 conditioned media (70 μL on top of the filter, 350 μL to the bottom of the well) overnight in the 37° C. CO2 incubator. Cells were seeded in the pre-coated 24-well transwell plates at 1.7×10^5 cell/well with 700 μL of growth media at the bottom of the well and 200 μL of growth media at the top of the filter. After 24 hrs, cells were switched into HBE differentiation media ((DMEM/F12 (Gibco, Cat #11330-032) supplement with 2% Ultroser G (Pall, Cat #15950-017), 2% of Fetal Clone II (Hyclone, Cat #SH30066.03), 0.25% Bovine Brain Extract (Lonza, Cat #CC-4098), 1% of PSA, 2.5 μg/mL of Insulin (Sigma, Cat #19278), 20 nM of Hydrocortisone (Sigma, Cat #H0888), 500 nM of Triiodothyronine (Sigma, Cat #T6397), 2.5 μg/mL of Transferrin (Sigma, Cat #T8158), 250 nM of Ethanolamine (Sigma, Cat #E0135), 1.5 μM of Epinephrine (Sigma, Cat #E4250), 250 nM of Phosphoethanolamine (Sigma, Cat #P0503), 10 nM of retinoic acid)) with 200 μL on top of the filter (apical side) and 700 μL at the bottom of the well (basolateral side). Cells were fed every other day with the differentiation media. After 4 days, cells were exposed to air/liquid interface. Then cells were fed every other day for 4 weeks before fully differentiated.
Cells were washed with 3 mM DTT in PBS at 70 ul/well for 30 min at 37° C. 6 days before the assay. 3 days before the assay, cells were washed again with PBS at 70 ul/well for 30 min at 37° C. Then cells were treated with compound for 24 hrs before the assay.
Following 24 hr treatment with compound, cells were transferred into plates containing 750 ul of assay media on basolateral side and 250 ul on apical side (Assay medium: F-12 Coon's modified, 20 mM HEPES pH7.4 with TRIS Base, No FCS or bicarbonate). The plates wee then transferred to the heated plate compartments (basolateral buffer temperature ˜36.5° C. on the heating block) of the TECC24 system for 45 mins prior to measurements.
Modulators were added sequentially as follows while the TECC24 instrument recorded the equivalent short circuit current (Ieq):
Prior to dilution into assay medium the stocks were as follows: • Benzamil stock: 10 mM in DMSO • Forskolin Stock: 50 mM in DMSO • N-(2,4-di-tert-butyl-5-hydroxyphenyl)-1,4-dihydro-4-oxoquinoline-3-carboxamide: 50 mM in DMSO • (S)-3-amino-6-methoxy-N-(3,3,3-trifluoro-2-hydroxy-2-methylpropyl)-5-(trifluoromethyl)picolinamide: 50 mM stock 100% DMSO • Bumetanide stock: 20 mM in EtOH
The data was normalized using the median signal from wells treated with 0.1% DMSO as a baseline. Curve fitting and EC50 calculations were performed using the following equation: […]

Test [2] addresses T1, delF508-CFTR. Description: Measurement of delF508-CFTR-HRP surface expression in CFBE41o- cells. It counts as cell-based. The following applies: for EC50: HRP-tagged delF508-CFTR in CFBE41o- cells, 24 h with compound, luminescence, 10-point curve, top 10 μM; for Emax: efficacy relative to reference compound 3-(6-(1-(2,2-difluorobenzo[d][1,3]dioxol-5-yl)cyclopropane-1-carboxamido)-3-methylpyridin-2-yl)benzoic acid, CFBE41o- cells, 24 h, read-out: DelF508-CFTR-HRP Amax %. In short, it runs like this: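 CFBE41o- cells stably expressing delF508-CFTR with HRP in the fourth extracellular loop, induced with 500 ng/mL doxycycline for 48 h, then treated with compound (top 10 μM, 10-point 3-fold) for 24 h at 37° C. Surface HRP detected by luminescence with cell-impermeant substrate; EC50 from logistic fit of triplicates, normalized to lowest concentration.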

T1 sequence (P13569 with tags, fused parts or gaps DEL508-508): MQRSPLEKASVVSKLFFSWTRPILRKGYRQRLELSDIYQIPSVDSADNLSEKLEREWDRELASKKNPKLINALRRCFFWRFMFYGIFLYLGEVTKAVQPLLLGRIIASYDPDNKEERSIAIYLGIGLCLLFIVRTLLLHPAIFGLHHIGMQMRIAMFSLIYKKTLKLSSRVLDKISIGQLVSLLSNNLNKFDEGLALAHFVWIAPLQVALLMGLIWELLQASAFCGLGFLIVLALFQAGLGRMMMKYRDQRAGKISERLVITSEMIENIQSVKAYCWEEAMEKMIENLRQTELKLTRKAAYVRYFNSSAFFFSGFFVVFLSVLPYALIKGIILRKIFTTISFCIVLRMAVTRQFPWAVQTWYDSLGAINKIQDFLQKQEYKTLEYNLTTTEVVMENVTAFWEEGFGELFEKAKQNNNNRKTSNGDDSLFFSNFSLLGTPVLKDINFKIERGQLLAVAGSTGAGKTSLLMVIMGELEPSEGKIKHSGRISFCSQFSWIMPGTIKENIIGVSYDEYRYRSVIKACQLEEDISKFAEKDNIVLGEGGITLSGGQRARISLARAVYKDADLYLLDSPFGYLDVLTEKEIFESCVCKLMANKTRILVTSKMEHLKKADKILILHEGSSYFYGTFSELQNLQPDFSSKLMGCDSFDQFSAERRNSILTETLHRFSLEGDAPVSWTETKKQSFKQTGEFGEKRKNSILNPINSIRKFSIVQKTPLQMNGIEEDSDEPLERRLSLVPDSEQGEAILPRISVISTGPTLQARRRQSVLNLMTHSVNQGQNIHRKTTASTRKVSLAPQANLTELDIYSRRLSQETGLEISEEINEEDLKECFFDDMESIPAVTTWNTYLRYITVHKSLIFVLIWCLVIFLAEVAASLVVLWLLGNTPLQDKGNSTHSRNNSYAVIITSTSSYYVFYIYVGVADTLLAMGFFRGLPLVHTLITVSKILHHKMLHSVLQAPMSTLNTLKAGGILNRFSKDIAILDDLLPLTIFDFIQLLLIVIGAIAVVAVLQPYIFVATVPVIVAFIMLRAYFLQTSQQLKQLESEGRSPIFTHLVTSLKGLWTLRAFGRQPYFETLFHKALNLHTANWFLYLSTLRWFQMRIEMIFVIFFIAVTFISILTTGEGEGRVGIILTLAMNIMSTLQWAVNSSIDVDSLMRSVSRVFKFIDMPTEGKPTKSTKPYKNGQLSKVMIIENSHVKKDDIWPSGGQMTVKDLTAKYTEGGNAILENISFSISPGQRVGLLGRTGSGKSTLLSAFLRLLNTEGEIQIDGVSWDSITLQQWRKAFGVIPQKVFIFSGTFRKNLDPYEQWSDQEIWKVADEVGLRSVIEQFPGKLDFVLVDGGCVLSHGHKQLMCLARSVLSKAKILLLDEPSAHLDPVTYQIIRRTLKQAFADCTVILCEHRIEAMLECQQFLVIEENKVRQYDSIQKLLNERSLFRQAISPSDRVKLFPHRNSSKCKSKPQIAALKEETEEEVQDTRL

Consider `CCCN(CCCC(=O)O)c1cccc(S(=O)(=O)Nc2ccc(Cl)c(-c3c(C)cccc3C)n2)n1` [Compound 157, 4-((6-(N-(5-chloro-6-(2,6-dimethylphenyl)pyridin-2-yl)sulfamoyl)pyridin-2-yl)(propyl)amino)butanoic Acid], for which, on delF508-CFTR [1], the EC50 turned out to be 0.586 µM and the “MTECC24-CFHBEC Amax %” value came out at 59%. Besides, at delF508-CFTR [2], the EC50 stood at 0.77 µM and the Emax was 589%.

On to `Cc1ccccc1-c1nc(NS(=O)(=O)c2cccc(N(CCCC(=O)O)CC3CC3)n2)ccc1C(F)(F)F` [Compound 103, 4-((cyclopropylmethyl)(6-(N-(6-(o-tolyl)-5-(trifluoromethyl)pyridin-2-yl)sulfamoyl)pyridin-2-yl)amino)butanoic Acid], for which, at delF508-CFTR [1], the EC50 came out at 0.073 µM and the “MTECC24-CFHBEC Amax %” value is listed as 142%. Also, the EC50 on delF508-CFTR [2] amounted to 1.43 µM.

Take `Cc1ccc(F)cc1-c1nc(NS(=O)(=O)c2cccc(N3CCC[C@@](C)(CC(=O)O)C3)n2)ccc1C(F)(F)F` (single isomer, unassigned) [Compound 64]: at delF508-CFTR [1], the EC50 stood at 0.002 µM and the “MTECC24-CFHBEC Amax %” value worked out at 107%. The EC50 at delF508-CFTR [2] stood at 1.33 µM.

With `CCN(CCC(=O)O)c1cccc(S(=O)(=O)Nc2ccc(C(F)(F)F)c(-c3ccccc3C)n2)n1` [Compound 71, 3-(ethyl(6-(N-(6-(o-tolyl)-5-(trifluoromethyl)pyridin-2-yl)sulfamoyl)pyridin-2-yl)amino)propanoic Acid], on delF508-CFTR [1], the EC50 came out at 0.365 µM and the “MTECC24-CFHBEC Amax %” value is 137%. Moreover, the EC50 on delF508-CFTR [2] was 2.36 µM.

For `Cc1ccccc1-c1nc(NS(=O)(=O)c2cccc(N(C)CC3(C(=O)O)CCOCC3)n2)ccc1C(F)(F)F` [Compound 133, 4-((methyl(6-(N-(6-(o-tolyl)-5-(trifluoromethyl)pyridin-2-yl)sulfamoyl)pyridin-2-yl)amino)methyl)tetrahydro-2H-pyran-4-carboxylic Acid], at delF508-CFTR [1], the EC50 was 0.901 µM and the “MTECC24-CFHBEC Amax %” value is recorded as 108%. In addition, on delF508-CFTR [2], the EC50 is 1.92 µM and the Emax came out at 547%.

For `CCc1ccccc1-c1nc(NS(=O)(=O)c2cccc(N(CCCC(=O)O)C(C)C)n2)ccc1C(F)(F)F` [Compound 96, 4-((6-(N-(6-(2-ethylphenyl)-5-(trifluoromethyl)pyridin-2-yl)sulfamoyl)pyridin-2-yl)(isopropyl)amino)butanoic Acid], on delF508-CFTR [1], the EC50 was 0.002 µM and the “MTECC24-CFHBEC Amax %” value came out at 202%. For the same molecule, at delF508-CFTR [2], the EC50 worked out at 0.72 µM.

For the molecule `Cc1ccccc1-c1nc(NS(=O)(=O)c2cccc(N(C)CCCCC(=O)O)n2)ccc1C(F)(F)F` [Compound 66, 5-(methyl(6-(N-(6-(o-tolyl)-5-(trifluoromethyl)pyridin-2-yl)sulfamoyl)pyridin-2-yl)amino)pentanoic Acid], at delF508-CFTR [1], the EC50 was determined as 0.185 µM and the “MTECC24-CFHBEC Amax %” value amounted to 133%. Besides, on delF508-CFTR [2], the EC50 is 1.6 µM.

Turning to `CCN(CCCC(=O)O)c1cccc(S(=O)(=O)Nc2ccc(C(F)(F)F)c(-c3ccccc3C)n2)n1` [Compound 114, 4-(ethyl(6-(N-(6-(o-tolyl)-5-(trifluoromethyl)pyridin-2-yl)sulfamoyl)pyridin-2-yl)amino)butanoic Acid], the EC50 at delF508-CFTR [1] was 0.101 µM; on delF508-CFTR [2], 1.68 µM. Besides, the “MTECC24-CFHBEC Amax %” value at delF508-CFTR [1] came to 211%.

With `CCc1ccccc1-c1nc(NS(=O)(=O)c2cccc(N(CC)CCCC(=O)O)n2)ccc1C(F)(F)F` [Compound 97, 4-(ethyl(6-(N-(6-(2-ethylphenyl)-5-(trifluoromethyl)pyridin-2-yl)sulfamoyl)pyridin-2-yl)amino)butanoic Acid], the EC50 was 0.004 µM at delF508-CFTR [1] and 1.36 µM on delF508-CFTR [2]. For the same molecule, the “MTECC24-CFHBEC Amax %” value at delF508-CFTR [1] turned out to be 190%.

Take `Cc1ccccc1-c1nc(NS(=O)(=O)c2cccc(N3CCC[C@@H](CCC(=O)O)C3)n2)ccc1C(F)(F)F` (single isomer, unassigned) [Compound 63]: at delF508-CFTR [1], the EC50 is 0.017 µM and the “MTECC24-CFHBEC Amax %” value came out at 149%. In addition, the EC50 on delF508-CFTR [2] stood at 1.46 µM.

Turning to `Cc1ccccc1-c1nc(NS(=O)(=O)c2cccc(N(CCCC(=O)O)C(C)C)n2)ccc1C(F)(F)F` [Compound 94, 4-(isopropyl(6-(N-(6-(o-tolyl)-5-(trifluoromethyl)pyridin-2-yl)sulfamoyl)pyridin-2-yl)amino)butanoic acid], the EC50 at delF508-CFTR [1] was found to be 0.026 µM; on delF508-CFTR [2] it was 1.37 µM. Further, the “MTECC24-CFHBEC Amax %” value at delF508-CFTR [1] worked out at 208%.

For the molecule `Cc1ccccc1-c1nc(NS(=O)(=O)c2cccc(N(CCCC(=O)O)CCC(F)(F)F)n2)ccc1C(F)(F)F` [Compound 134, 4-((6-(N-(6-(o-tolyl)-5-(trifluoromethyl)pyridin-2-yl)sulfamoyl)pyridin-2-yl)(3,3,3-trifluoropropyl)amino)butanoic Acid], the EC50 at delF508-CFTR [1] is 0.114 µM; at delF508-CFTR [2] it was 1.37 µM. The “MTECC24-CFHBEC Amax %” value on delF508-CFTR [1] is recorded as 189%.

`Cc1c(F)cccc1-c1nc(NS(=O)(=O)c2cccc(N(C)CCCCC(=O)O)n2)ccc1C(F)(F)F` [Compound 67, 5-((6-(N-(6-(3-fluoro-2-methylphenyl)-5-(trifluoromethyl)pyridin-2-yl)sulfamoyl)pyridin-2-yl)(methyl)amino)pentanoic Acid]: at delF508-CFTR [1], the EC50 was found to be 0.161 µM and the “MTECC24-CFHBEC Amax %” value amounted to 168%. In addition, on delF508-CFTR [2], the EC50 turned out to be 1.63 µM.

With `Cc1ccc(F)cc1-c1nc(NS(=O)(=O)c2cccc(N(CCC(=O)O)C(C)C)n2)ccc1C(F)(F)F` [Compound 135, 3-((6-(N-(6-(5-fluoro-2-methylphenyl)-5-(trifluoromethyl)pyridin-2-yl)sulfamoyl)pyridin-2-yl)(isopropyl)amino)propanoic Acid], at delF508-CFTR [1], the EC50 was 0.065 µM and the “MTECC24-CFHBEC Amax %” value is 292%. The EC50 on delF508-CFTR [2] was 1.57 µM.

Regarding `CCCN(CCC(=O)O)c1cccc(S(=O)(=O)Nc2ccc(C(F)(F)F)c(-c3cc(F)ccc3C)n2)n1` [Compound 149, 3-((6-(N-(6-(5-fluoro-2-methylphenyl)-5-(trifluoromethyl)pyridin-2-yl)sulfamoyl)pyridin-2-yl)(propyl)amino)propanoic Acid], the EC50 on delF508-CFTR [1] stood at 0.088 µM; on delF508-CFTR [2] it was 1.49 µM. Besides, on delF508-CFTR [1], the “MTECC24-CFHBEC Amax %” value stood at 133%.
